{"source": "patent US6620967B1", "about": "“Ketosis-treating agent” (priority 1999, dated 2003)", "data": [{"test_system": "Wistar male rats subjected to ketosis under starvation for 48 hours", "test": "Effects at oral administration in rats subjected to ketosis under starvation", "assay_type": "in vivo, rat", "details": "oral (into the stomach), 1 or 2 mmol/kg-body weight, blood from tail vein up to 240 minutes after administration", "experimental": "Wistar male rats of 6 to 8 week age were subjected to ketosis under starvation for 48 hours and then used for experiment. Each of glutamine, glutamic acid, valine, isoleucine and serine was dissolved in water for injection and administered into the stomach using a gastroconductor to give a dose of 1 or 2 mmol/kg-body weight. As controls, the same quantity of water for injection was similarly administered, or each of glucose and alanine was similarly administered to give a dose of 1 or 2 mmol/kg-body weight.\nBefore the administration, and 30, 60, 90, 120, 180 and 240 minutes after the administration, blood was collected from a tail vein and the concentration of glucose in blood and the concentration of 3-hydroxybutyric acid usually measured for diagnosis of ketosis were measured.\nFIGS. 1 to 10 show changes of the concentrations of glucose and 3-hydroxybutyric acid in blood, which are expressed as rates of change from the values before the administration (FIG. 1: water for injection, FIG. 2: 1 mmol/kg of glucose, FIG. 3: 1 mmol/kg of alanine, FIG. 4: 2 mmol/kg of alanine, FIG. 5: 1 mmol/kg of glutamine, FIG. 6: 1 mmol/kg of glutamic acid, FIG. 7: 1 mmol/kg of valine, FIG. 8: 2 mmol/kg of valine, FIG. 9: 2 mmol/kg of isoleucine, FIG. 10: 2 mmol/kg of serine). In the figures, the symbols “-∘-” and “-▴-” correspond to the rates of change of 3-hydroxybutyric acid and glucose, respectively.\nFurthermore, as shown in the figures, the effect on reduction of ketone bodies disappeared within about 4 hours when glucose was used. On the other hand, when glutamine, glutamic acid, valine or isoleucine was used, the period of effecting the reduction of the concentration of ketone bodies was expected to be 24 hours or more, and therefore, they were effective as ketosis-treating agents having long duration of the effect.", "values": [{"smiles": "CC(C)[C@H](N)C(=O)O", "note": "[valine]", "concentration of glucose in blood, change from value before administration": "without largely increasing the concentration of glucose in blood", "concentration of ketone bodies (3-hydroxybutyric acid) in blood, change from value before administration": "reduced the concentration of ketone bodies"}, {"smiles": "N[C@@H](CO)C(=O)O", "note": "[serine]", "concentration of glucose in blood, change from value before administration": "without largely increasing the concentration of glucose in blood", "concentration of ketone bodies (3-hydroxybutyric acid) in blood, change from value before administration": "reduced the concentration of ketone bodies"}, {"smiles": "CC[C@H](C)[C@H](N)C(=O)O", "note": "[isoleucine]", "concentration of glucose in blood, change from value before administration": "without largely increasing the concentration of glucose in blood", "concentration of ketone bodies (3-hydroxybutyric acid) in blood, change from value before administration": "reduced the concentration of ketone bodies"}]}]}
